# Source: patent US20240041898A9, “NEUROSTEROIDS AND ENANTIOMERS THEREOF FOR THE PREVENTION AND TREATMENT OF NEURODEGENERATIVE CONDITIONS” (priority 2019, published 2024)
# “And” between values parts separate entries of the source, which are not always exact repeats. Identical values can stand only once.
# Columns and labels:
# [1] = tested on: retinal ganglion cells (RGCs); experiment: Ex vivo pressure-loaded whole mounted retinas, NeuN-positive RGC survival; format: cell-based, rat; conditions: 75 mmHg, 1 μM; for RGC Survival (number of NeuN-positive cells), individual areas 1-5: single values
# Procedure: (§1) Rat ex vivo Eyecup Preparation—Rat ex vivo eyecups were prepared from 28-32 day old male Sprague-Dawley rats (Charles River Laboratories International Inc., Wilmington, MA). The anterior half of the enucleated eyes was carefully removed to make eyecup preparations. Eyecups were placed at the bottom of a 100 ml glass beaker filled with aCSF (artificial cerebrospinal fluid) containing (in mM): 124 NaCl, 5 KCl, 2 MgSO4, 2 CaCl2, 1.25 NaH2PO4, 22 NaHCO3, and 10 glucose, and incubated at 30° C. for 24 hours using a closed pressure-loading system (FIG. 1C). pH was maintained at 7.35 to 7.40. In the closed-pressure system, a glass beaker with the eyecup was placed at the bottom of an acrylic pressure chamber (2,000 ml volume). A 95% O2-5% CO2 gas mixture was delivered through disposable plastic tubing with an infusion valve and a control dial on the lid of the pressure chamber and an air filter (Cat #SLGP033RS, Merck Millipore, Billerica, MA). The plastic tubing delivering the gas terminated 1 cm above the bottom of the beaker.
# (§2) Acutely prepared eyecups were incubated in gassed aCSF for at least 1 h at 30° C. before pressure loading. In some experiments, AlloP (1 μM), ent-AlloP (1 μM), and 3-MA (10 mM) were dissolved in aCSF at the time of experiment and administered by bath perfusion. Eyecup preparations were treated with these drugs for 1 h at 30° C. before pressure loading. For pressure loading, the 95% O2-5% CO2 gas mixture was infused until the pressure reading given by a manometer reached the appropriate level. The pressure was then locked by adjusting the control dial of the effusion valve, and monitored continuously for 24 h at 30° C.
# Preparation of whole mounted retinas and immunostaining—The retina was carefully detached from the eye by making cuts along the ora serrata and optic nerve. […] Each quadrant was analyzed using a 1 mm^2 frame, and counted using Image-Pro Plus software. […] RGC counts were analyzed using Image-Pro Plus software. NeuN positive RGCs were determined as the measurement of 5 different areas from three eyes per experimental condition.
# LC3-II = experiment: Ex vivo pressure-loaded retinas, Western blot of LC3-II; format: cell-based, rat; conditions: ex vivo; for LC3-II expression (FIG. 2Q), Average / LC3-II expression (FIG. 2Q), individual experiments 1-4: relative units, control = 1.00, normalized to β-actin
# Procedure: as §1, §2
# Western Blot Analysis—At the end of each experiment, the posterior segments of the eye were placed on a flat cutting surface and immersed in ice-cold aCSF. With a surgical blade, the retina was carefully and gently detached from the sclera with a fine forceps. The isolated retinas were frozen at −80° C. Retinas were then homogenized in lysis buffer solution (CelLytic MT; Sigma-Aldrich, Inc.) with protease inhibitor cocktail (Sigma-Aldrich, Inc.), prepared according to the manufacturer's instructions. The tissue extracts were ultrasonicated and clarified by centrifugation at 12,000 g for 20 minutes at 4° C. The protein concentrations in supernatants were assayed (Quant-iT assay kit; Invitrogen Corp., Carlsbad, CA). Twenty micrograms of retinal extract were subjected to SDS polyacrylamide gel electrophoretic analysis. The proteins were then transferred to a PVDF. Immunoblots by polyclonal rabbit anti-LC3B antibody (MBL Life Science) or anti-SQSTMl/p62 mouse monoclonal antibody (Abcam) were visualized using WesternBreeze Chemiluminescent Immunodetection system (Invitrogen) with the exposure time to autoradiograph film (MXJB Plus; Kodak, Rochester, NY) adjusted to avoid over- or undersaturation. Precision Plus Protein™ Western Standards (Bio-Rad, Hercules, CA) followed by Precision Protein™ strep Tactin-AP conjugate (Bio-Rad) was used for a molecular marker of LC3. MagicMark™ XP Western Protein Standard (Invitrogen, Carlsbad, CA) was used for a molecular marker of p62. Immunoblot data are normalized to β-actin levels in the same sample.
# The density of Western blot bands was quantified using Image-Pro Plus software. Quantification was adjusted to protein expression at 10 mmHg after normalization to the β-actin band at each pressure, and the relative gray-scale value was calculated by densitometric analysis of the obtained bands. At least four independent experiments were performed for each condition, and the results are presented as relative units numerically. Differences in expression levels were evaluated using Wilcoxon Rank-Sum Test, Tukey's or Dunnett's multiple comparison test. Sample numbers were four to five per each experimental condition.
Structure (SMILES),"RGC Survival (number of NeuN-positive cells), individual areas 1-5 [1]","LC3 expression after 3-MA treatment (FIG. 3F), Average (LC3-II; 75 mmHg, 1 μM ent-AlloP, 10 mM 3-MA, relative, ent-AlloP + 3-MA = 1.00, Average of 4)","LC3 expression after 3-MA treatment (FIG. 3F), individual experiments 1-4 (LC3-II; 75 mmHg, 1 μM ent-AlloP, 10 mM 3-MA, relative, ent-AlloP + 3-MA = 1.00, single values)","LC3-II expression (FIG. 2Q), Average (LC3-II; Average of 4)","LC3-II expression (FIG. 2Q), individual experiments 1-4 (LC3-II; single values)","RGC Survival (number of NeuN-positive cells), Average ([1]; Average of 5)"
"CC(=O)[C@@H]1CC[C@@H]2[C@H]3CC[C@@H]4C[C@@H](O)CC[C@@]4(C)[C@@H]3CC[C@]21C [ent-AlloP, ent-allopregnanolone]",2120 per square millimeter and 2280 per square millimeter and 2000 per square millimeter and 1840 per square millimeter and 1860 per square millimeter,9.00,11.20 and 8.89 and 7.78 and 8.11,5.25,6.14 and 5.17 and 4.48 and 5.22,
"CC(=O)[C@H]1CC[C@H]2[C@@H]3CC[C@H]4C[C@H](O)CC[C@]4(C)[C@H]3CC[C@]12C [AlloP, allopregnanolone]",2220 per square millimeter and 2240 per square millimeter and 1860 per square millimeter and 2260 per square millimeter and 1840 per square millimeter,,,3.62,4.31 and 3.47 and 3.34 (2×),2084.0 per square millimeter
